# Source: patent US20240158370A1, “CK1 alpha AND DUAL CK1 alpha / GSPT1 DEGRADING COMPOUNDS” (Innovo Therapeutics, Inc., priority 2022, published 2024)
# What was measured:
# [1] = molecular target: T1, CK1α (Homo sapiens, UniProt P48729+Q96SW2); assay: HiBiT degradation assay, CK1α, Procedure A; type: cell-based; conditions: six hours
# T1 construct: CSNK1A1-HiBit KI HEK293(LgBit) Cells; host or cells: HEK293(LgBit) knock-in cells
# How it was run: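 Six-hour treatment at 37° C, ten doses between 10 μM and 0.005 μM, then HiBiT lytic luminescence. Fitted DC50 and Ymin.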
# [2] = molecular target: GSPT1 (Homo sapiens, UniProt P15170+Q96SW2); assay: HiBiT degradation assay, GSPT1, Procedure B (Molt 4_hGSPT1_HiBIT cells); type: cell-based; design: Molt 4_hGSPT1_HiBIT N-terminus tagged cells were generated using CRISPR technology; endogenous in cells; host or cells: Molt 4 cells, CRISPR-edited; conditions: six hours
# Method: Molt 4_hGSPT1_HiBIT N-terminus tagged cells were generated using CRISPR technology. Cells were maintained in RPMI media (Thermo Fisher Scientific, Catalog #11875-093) containing 10% Fetal Bovine Serum (Thermo Fisher Scientific, Catalog #16140071) 1% Penicillin-Streptomycin (Thermo Fisher Scientific, Catalog #25200056). Cells were maintained at 37° C. in a 5% CO2 environment.
# Compounds were spotted onto Cornin 384-Well, Cell Culture-Treated, Flat-Bottom, Low Flange Microplate (Fisher Scientific, Catalog #07-201-013) using a Tecan D300e digital dispenser. Ten-point dose response curves spanning from 10 μM to 0.005 μM with a 0.1% DMSO tolerance were used.
# Cells were centrifuged for 5 minutes at 1200 RPMs. Cell culture media was aspirated off and cells were resuspended with RPMI+10% FBS. Cell density was determined using a Denovix CellDrop BF cell counter. Cell density was adjusted to 1×10^6 cells/ml. 40 μl of cells was added to compound treated tissue culture plates and incubated for six hours at 37° C. After six hours, cell culture plates were removed from tissue culture incubator and cooled to room temperature. 40 μl of Nano-GloHiBiT Lytic Detection Reagent (Promega, Catalog #N3040) was added to each well. Plates were placed on an orbital shaker (600 rpm) for 20 minutes. Luminescence was measured using an Envsion plate reader (Perkin Elmer). IC50 curves and Ymin were generated using a 4-parameter curve fit with GraphPad Prism software (Prism Corporation).
# Results from the HiBiT assay (DC50 (nM) and Ymin (% remaining)) are shown below. All CK1α data was generated according to Procedure A. GSPT1 data for Examples 1-600, 603-620 and 703-705 was generated according to Procedure A. GSPT1 data for Examples 601, 621-702 and 706-735 was generated according to Procedure B.
# T1 sequence (P48729 whole entry): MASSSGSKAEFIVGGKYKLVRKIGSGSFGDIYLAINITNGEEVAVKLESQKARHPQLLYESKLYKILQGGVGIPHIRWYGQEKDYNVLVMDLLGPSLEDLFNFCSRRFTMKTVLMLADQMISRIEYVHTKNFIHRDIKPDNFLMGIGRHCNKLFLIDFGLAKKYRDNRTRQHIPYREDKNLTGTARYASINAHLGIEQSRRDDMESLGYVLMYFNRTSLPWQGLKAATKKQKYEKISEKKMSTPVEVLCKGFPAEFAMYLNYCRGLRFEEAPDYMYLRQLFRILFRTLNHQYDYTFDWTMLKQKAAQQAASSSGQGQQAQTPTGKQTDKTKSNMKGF
# T1 sequence (Q96SW2 whole entry): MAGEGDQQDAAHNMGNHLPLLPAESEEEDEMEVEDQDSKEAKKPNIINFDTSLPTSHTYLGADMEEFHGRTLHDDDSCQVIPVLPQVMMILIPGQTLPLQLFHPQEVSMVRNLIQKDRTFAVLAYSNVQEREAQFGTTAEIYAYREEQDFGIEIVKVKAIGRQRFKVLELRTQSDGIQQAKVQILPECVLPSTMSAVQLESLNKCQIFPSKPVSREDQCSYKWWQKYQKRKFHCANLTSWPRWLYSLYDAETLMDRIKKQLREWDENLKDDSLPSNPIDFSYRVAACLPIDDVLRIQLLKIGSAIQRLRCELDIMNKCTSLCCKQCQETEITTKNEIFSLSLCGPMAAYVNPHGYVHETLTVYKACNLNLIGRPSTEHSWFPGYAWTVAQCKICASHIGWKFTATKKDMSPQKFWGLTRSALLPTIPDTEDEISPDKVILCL
# T1 sequence (Q16531 whole entry partner): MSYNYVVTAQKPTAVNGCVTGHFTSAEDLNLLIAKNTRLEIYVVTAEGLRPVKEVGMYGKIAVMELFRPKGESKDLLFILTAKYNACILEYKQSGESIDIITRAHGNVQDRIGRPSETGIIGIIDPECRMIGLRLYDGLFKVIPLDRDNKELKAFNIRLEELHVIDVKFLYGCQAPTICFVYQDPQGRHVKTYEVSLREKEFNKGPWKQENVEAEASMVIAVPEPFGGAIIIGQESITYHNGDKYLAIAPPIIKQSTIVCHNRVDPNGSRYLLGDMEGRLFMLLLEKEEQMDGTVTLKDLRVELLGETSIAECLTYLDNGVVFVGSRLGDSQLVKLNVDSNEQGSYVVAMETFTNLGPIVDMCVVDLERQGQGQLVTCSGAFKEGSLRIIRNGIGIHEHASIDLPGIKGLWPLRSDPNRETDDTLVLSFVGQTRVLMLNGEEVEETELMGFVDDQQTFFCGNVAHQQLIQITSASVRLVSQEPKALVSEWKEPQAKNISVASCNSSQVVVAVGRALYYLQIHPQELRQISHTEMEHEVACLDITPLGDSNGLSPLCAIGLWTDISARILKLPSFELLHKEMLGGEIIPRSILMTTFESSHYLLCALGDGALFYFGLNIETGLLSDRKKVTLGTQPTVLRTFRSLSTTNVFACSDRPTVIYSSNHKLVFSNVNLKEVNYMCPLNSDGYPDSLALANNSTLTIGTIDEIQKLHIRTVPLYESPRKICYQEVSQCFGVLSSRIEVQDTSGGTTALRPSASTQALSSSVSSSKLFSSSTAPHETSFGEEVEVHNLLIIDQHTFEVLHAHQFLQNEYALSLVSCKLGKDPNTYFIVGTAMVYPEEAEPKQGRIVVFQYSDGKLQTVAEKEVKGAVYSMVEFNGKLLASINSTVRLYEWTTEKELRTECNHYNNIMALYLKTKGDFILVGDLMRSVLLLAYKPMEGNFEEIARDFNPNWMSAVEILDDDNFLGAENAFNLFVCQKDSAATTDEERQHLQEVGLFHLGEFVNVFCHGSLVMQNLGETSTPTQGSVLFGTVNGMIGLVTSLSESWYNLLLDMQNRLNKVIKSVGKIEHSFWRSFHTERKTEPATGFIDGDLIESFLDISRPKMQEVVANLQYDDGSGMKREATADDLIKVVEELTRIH
# GSPT1, sequence (P15170 whole entry): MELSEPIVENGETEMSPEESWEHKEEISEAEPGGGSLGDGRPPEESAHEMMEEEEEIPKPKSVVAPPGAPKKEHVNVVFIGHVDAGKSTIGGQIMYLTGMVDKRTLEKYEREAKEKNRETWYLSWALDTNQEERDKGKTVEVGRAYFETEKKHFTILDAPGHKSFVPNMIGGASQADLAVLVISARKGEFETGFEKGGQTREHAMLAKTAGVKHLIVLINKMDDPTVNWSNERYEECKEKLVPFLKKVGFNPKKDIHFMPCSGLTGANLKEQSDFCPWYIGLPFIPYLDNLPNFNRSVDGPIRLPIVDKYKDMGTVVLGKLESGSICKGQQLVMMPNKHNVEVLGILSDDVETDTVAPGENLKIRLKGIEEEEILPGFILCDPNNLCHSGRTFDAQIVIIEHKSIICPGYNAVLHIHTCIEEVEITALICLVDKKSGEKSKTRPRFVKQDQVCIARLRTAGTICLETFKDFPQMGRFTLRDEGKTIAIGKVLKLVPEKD
# GSPT1, sequence (Q96SW2 whole entry): as the sequence (Q96SW2 whole entry) above
# GSPT1, sequence (Q16531 whole entry partner): as the sequence (Q16531 whole entry partner) above
SMILES,CK1α Ymin [1],DC50 [1],DC50 [2],GSPT1 Ymin [2]
Cn1cc(-c2ccc3c(c2)CN(C2CCC(=O)NC2=O)C3=O)nc1-c1ccccc1C(F)(F)F (centres unmarked) [Example 649],D (D = >10- 25% remaining),< 25 nM,< 25 nM,E (E = >25-75% remaining)
Cn1cc(-c2ccc3c(c2)CN(C2CCC(=O)NC2=O)C3=O)nc1-c1ccc2ccccc2c1 (centres unmarked) [Example 652],D (D = >10- 25% remaining),< 25 nM,< 25 nM,F (F = >75-100% remaining)
Cn1cc(-c2ccc3c(c2)CN(C2CCC(=O)NC2=O)C3=O)nc1-c1ccc(C#N)c(F)c1 (centres unmarked) [Example 655],E (E = >25-75% remaining),< 25 nM,≥ 25 nM,F (F = >75-100% remaining)
Cn1cc(-c2ccc3c(c2)CN(C2CCC(=O)NC2=O)C3=O)nc1-c1ccc(CO)cc1 (centres unmarked) [Example 657],D (D = >10- 25% remaining),< 25 nM,≥ 25 nM,F (F = >75-100% remaining)
Cn1cc(-c2ccc3c(c2)CN(C2CCC(=O)NC2=O)C3=O)nc1-c1ccc2nccn2c1 (centres unmarked) [Example 658],D (D = >10- 25% remaining),≥ 25 nM,≥ 25 nM,F (F = >75-100% remaining)
Cn1cc(-c2ccc3c(c2)CN(C2CCC(=O)NC2=O)C3=O)nc1-c1cncc2ccccc12 (centres unmarked) [Example 659],E (E = >25-75% remaining),< 25 nM,≥ 25 nM,F (F = >75-100% remaining)
Cn1cc(-c2ccc3c(c2)CN(C2CCC(=O)NC2=O)C3=O)nc1-c1ccc2ncccc2c1 (centres unmarked) [Example 660],D (D = >10- 25% remaining),< 25 nM,< 25 nM,E (E = >25-75% remaining)
Cn1cc(-c2ccc3c(c2)CN(C2CCC(=O)NC2=O)C3=O)nc1-c1c[nH]c2ncccc12 (centres unmarked) [Example 662],E (E = >25-75% remaining),< 25 nM,≥ 25 nM,F (F = >75-100% remaining)
Cn1cc(-c2ccc3c(c2)CN(C2CCC(=O)NC2=O)C3=O)nc1-c1ccc(-n2cccn2)cc1 (centres unmarked) [Example 665],E (E = >25-75% remaining),< 25 nM,≥ 25 nM,D (D = >10- 25% remaining)
Cn1cc(-c2ccc3c(c2)CN(C2CCC(=O)NC2=O)C3=O)nc1-c1ccc(N2CCOCC2)cc1 (centres unmarked) [Example 666],E (E = >25-75% remaining),< 25 nM,≥ 25 nM,F (F = >75-100% remaining)
Cn1cc(-c2ccc3c(c2)CN(C2CCC(=O)NC2=O)C3=O)nc1-c1ccc(Cl)c(C(F)(F)F)c1 (centres unmarked) [Example 667],E (E = >25-75% remaining),< 25 nM,< 25 nM,F (F = >75-100% remaining)
Cn1cc(-c2ccc3c(c2)CN(C2CCC(=O)NC2=O)C3=O)nc1-c1ccc(CN2CCOCC2)cc1 (centres unmarked) [Example 668],E (E = >25-75% remaining),< 25 nM,≥ 25 nM,F (F = >75-100% remaining)
Cn1cc(-c2ccc3c(c2)CN(C2CCC(=O)NC2=O)C3=O)nc1-c1ccc2c(c1)CCCO2 (centres unmarked) [Example 671],E (E = >25-75% remaining),< 25 nM,≥ 25 nM,F (F = >75-100% remaining)
Cn1cc(-c2ccc3c(c2)CN(C2CCC(=O)NC2=O)C3=O)nc1-c1cccc2cnccc12 (centres unmarked) [Example 672],E (E = >25-75% remaining),< 25 nM,< 25 nM,F (F = >75-100% remaining)
Cn1cc(-c2ccc3c(c2)CN(C2CCC(=O)NC2=O)C3=O)nc1-c1cccc2ccccc12 (centres unmarked) [Example 676],E (E = >25-75% remaining),< 25 nM,≥ 25 nM,F (F = >75-100% remaining)
Cn1cc(-c2ccc3c(c2)CN(C2CCC(=O)NC2=O)C3=O)nc1-c1ccc2c(c1)CCC(=O)N2 (centres unmarked) [Example 678],E (E = >25-75% remaining),≥ 25 nM,< 25 nM,F (F = >75-100% remaining)
Cn1cc(-c2ccc3c(c2)CN(C2CCC(=O)NC2=O)C3=O)nc1-c1nn(C)c2ccccc12 (centres unmarked) [Example 679],D (D = >10- 25% remaining),< 25 nM,≥ 25 nM,F (F = >75-100% remaining)
Cn1cc(-c2ccc3c(c2)CN(C2CCC(=O)NC2=O)C3=O)nc1-c1ccc2c(c1)OCO2 (centres unmarked) [Example 680],C (C = 0-10% remaining),< 25 nM,≥ 25 nM,E (E = >25-75% remaining)
Cn1cc(-c2ccc3c(c2)CN(C2CCC(=O)NC2=O)C3=O)nc1-c1cccc(OCc2ccccc2)c1 (centres unmarked) [Example 681],C (C = 0-10% remaining),< 25 nM,< 25 nM,D (D = >10- 25% remaining)

# Next, values leading:
CK1α Ymin [1],DC50 [1],DC50 [2],GSPT1 Ymin [2],SMILES
D (D = >10- 25% remaining),< 25 nM,< 25 nM,F (F = >75-100% remaining),Cc1cccc(-c2nc(-c3ccc4c(c3)CN(C3CCC(=O)NC3=O)C4=O)cn2C)c1C (centres unmarked) [Example 650]
D (D = >10- 25% remaining),< 25 nM,< 25 nM,E (E = >25-75% remaining),Cc1cccc(F)c1-c1nc(-c2ccc3c(c2)CN(C2CCC(=O)NC2=O)C3=O)cn1C (centres unmarked) [Example 651]
D (D = >10- 25% remaining),< 25 nM,≥ 25 nM,F (F = >75-100% remaining),Cn1cc(-c2ccc3c(c2)CN(C2CCC(=O)NC2=O)C3=O)nc1-c1ccc(F)cc1F (centres unmarked) [Example 653]
D (D = >10- 25% remaining),< 25 nM,< 25 nM,F (F = >75-100% remaining),Cn1cc(-c2ccc3c(c2)CN(C2CCC(=O)NC2=O)C3=O)nc1-c1ccc(C#N)cc1F (centres unmarked) [Example 654]
E (E = >25-75% remaining),< 25 nM,≥ 25 nM,F (F = >75-100% remaining),Cn1cc(-c2ccc3c(c2)CN(C2CCC(=O)NC2=O)C3=O)nc1-c1ccccc1F (centres unmarked) [Example 656]
E (E = >25-75% remaining),< 25 nM,≥ 25 nM,F (F = >75-100% remaining),Cn1cc(-c2ccc3c(c2)CN(C2CCC(=O)NC2=O)C3=O)nc1-c1ccc(Cl)c(F)c1 (centres unmarked) [Example 661]
E (E = >25-75% remaining),< 25 nM,< 25 nM,F (F = >75-100% remaining),Cc1ccc(-c2nc(-c3ccc4c(c3)CN(C3CCC(=O)NC3=O)C4=O)cn2C)c(N)c1 (centres unmarked) [Example 663]
E (E = >25-75% remaining),< 25 nM,≥ 25 nM,E (E = >25-75% remaining),Cn1cc(-c2ccc3c(c2)CN(C2CCC(=O)NC2=O)C3=O)nc1-c1ccsc1 (centres unmarked) [Example 664]
E (E = >25-75% remaining),≥ 25 nM,≥ 25 nM,F (F = >75-100% remaining),Cn1cc(-c2ccc3c(c2)CN(C2CCC(=O)NC2=O)C3=O)nc1-c1cccc(C(N)=O)c1 (centres unmarked) [Example 669]
E (E = >25-75% remaining),< 25 nM,≥ 25 nM,F (F = >75-100% remaining),Cc1ccc(-c2nc(-c3ccc4c(c3)CN(C3CCC(=O)NC3=O)C4=O)cn2C)c(F)c1 (centres unmarked) [Example 670]
E (E = >25-75% remaining),< 25 nM,< 25 nM,F (F = >75-100% remaining),COc1ccccc1-c1nc(-c2ccc3c(c2)CN(C2CCC(=O)NC2=O)C3=O)cn1C (centres unmarked) [Example 673]
E (E = >25-75% remaining),< 25 nM,≥ 25 nM,F (F = >75-100% remaining),Cc1ccc(N)cc1-c1nc(-c2ccc3c(c2)CN(C2CCC(=O)NC2=O)C3=O)cn1C (centres unmarked) [Example 674]
E (E = >25-75% remaining),< 25 nM,< 25 nM,F (F = >75-100% remaining),Cc1ccc(-c2nc(-c3ccc4c(c3)CN(C3CCC(=O)NC3=O)C4=O)cn2C)cc1F (centres unmarked) [Example 675]
E (E = >25-75% remaining),< 25 nM,≥ 25 nM,,Cn1cc(-c2ccc3c(c2)CN(C2CCC(=O)NC2=O)C3=O)nc1-c1ccc(F)c(C#N)c1 (centres unmarked) [Example 677]
